The record followed here is patent publication US20260347373A1, “HETEROCYCLIC COMPOUNDS, COMPOSITIONS THEREOF, AND METHODS OF TREATMENT THEREWITH” (BeOne Medicines I GmbH, priority 2023, published 2026).

In general, IC50 refers to the concentration that gives 50% inhibition.

The target in the first assay is WT KRAS (Homo sapiens, UniProt P01116). Briefly: KRAS WT Probe Displacement Assay (TR-FRET, GDP-loaded). The format is binding. To be noted: KRAS WT, read-out: KRAS^WT Probe Displacement Assay IC50. From the text: (§1) The synthetic routes of probe 1 and 2, which have been disclosed in PCT/CN2022/070676, are hereby incorporated herein.
Chain of WT KRAS (P01116 1-188 isoform P01116-2): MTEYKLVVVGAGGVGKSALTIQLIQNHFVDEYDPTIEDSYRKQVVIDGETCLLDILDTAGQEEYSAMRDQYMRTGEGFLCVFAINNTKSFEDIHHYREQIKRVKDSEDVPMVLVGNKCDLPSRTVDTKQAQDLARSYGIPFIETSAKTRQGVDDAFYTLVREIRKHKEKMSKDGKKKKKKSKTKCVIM
(TR-FRET usually uses a lanthanide donor and a delayed reading to cut background.)
Take `Cc1cc(N)cc(-c2nc3c4c(nc(OCC5(CN6CCC7(C6)CC7(F)F)CC5)nc4c2F)N2C[C@H]4CC[C@H](N4)[C@H]2CCO3)c1C(F)(F)F` (single isomer, unassigned) [Example 139]: the IC50 lay within 3 to 1000 nM.
Still for that read-out and setting: as for `Cc1cc(N)cc(-c2nc3c4c(nc(OCC5(C)CN(C)CC/C5=C\F)nc4c2F)N2C[C@H]4CC[C@H](N4)[C@H]2CCO3)c1C(F)(F)F` (single isomer, unassigned) [Example 237], the figure is 0.3 to 3 nM; as for `Cc1cc(N)cc(-c2nc3c4c(nc(OC[C@]5(CN(C)C)CC5(F)F)nc4c2F)N2C[C@H]4CC[C@H](N4)[C@H]2CC(C)O3)c1C(F)(F)F` (single isomer, unassigned) [Example 249], 3 to 1000 nM.
The same measure, in the same setting: the figure for `Cc1cc(N)cc(-c2nc3c4c(nc(OCC5(CN6CC7CC7C6)CC5(F)F)nc4c2F)N2C[C@H]4CC[C@H](N4)[C@H]2CCO3)c1C(F)(F)F` (single isomer, unassigned) [Example 29] is 0.3 to 3 nM.
The same measure, in the same setting: the figure for `Cc1cc(N)cc(-c2nc3c4c(nc(OCC5(C)CN(CC6CC6)CC/C5=C\F)nc4c2F)N2C[C@H]4CC[C@H](N4)[C@H]2CCO3)c1C(F)(F)F` (single isomer, unassigned) [Example 239] is 0.3 to 3 nM.

The target in the next assay is KRAS G12D (Homo sapiens, UniProt P01116, G12D). Briefly: KRAS G12D Probe Displacement Assay (TR-FRET, GDP-loaded). Format: binding. To be noted: KRAS G12D, read-out: KRAS^G12D Probe Displacement Assay IC50.
Chain of KRAS G12D (P01116 1-188 isoform P01116-2 G12D): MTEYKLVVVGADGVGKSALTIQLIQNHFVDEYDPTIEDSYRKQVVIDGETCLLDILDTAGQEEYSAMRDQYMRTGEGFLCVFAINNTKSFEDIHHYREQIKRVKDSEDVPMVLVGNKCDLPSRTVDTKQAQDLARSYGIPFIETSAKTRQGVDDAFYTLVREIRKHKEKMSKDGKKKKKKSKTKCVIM
Excerpt: as §1
As for `Cc1cc(N)cc(-c2nc3c4c(nc(O[C@H]5COCC[C@H]5N(C)C)nc4c2F)N2C[C@H]4CC[C@H](N4)[C@H]2CCO3)c1C(F)(F)F` [Example 12, (3R,4R)-3-(((6aR,7S,10R)-2-(5-amino-3-methyl-2-(trifluoromethyl)phenyl)-1-fluoro-5,6,6a,7,8,9,10,11-octahydro-4-oxa-3,11a,12,14,15-pentaaza-7,10-methanocyclohepta[4,5]cycloocta [1,2,3-de]naphthalen-13-yl)oxy)-N,N-dimethyltetrahydro-2H-pyran-4-amine], the IC50 lay within 3 to 1000 nM.
The same measure, in the same setting: as for `Cc1cc(N)cc(-c2nc3c4c(nc(O[C@H]5CCOC[C@@H]5N(C)C)nc4c2F)N2C[C@H]4CC[C@H](N4)[C@H]2CCO3)c1C(F)(F)F` [Example 9, (3S,4S)-4-(((6aR,7S,10R)-2-(5-amino-3-methyl-2-(trifluoromethyl)phenyl)-1-fluoro-5,6,6a,7,8,9,10,11-octahydro-4-oxa-3,11a,12,14,15-pentaaza-7,10-methanocyclohepta[4,5]cycloocta [1,2,3-de]naphthalen-13-yl)oxy)-N,N-dimethyltetrahydro-2H-pyran-3-amine], the figure is 3 to 1000 nM; as for `Cc1cc(N)cc(-c2nc3c4c(nc(O[C@H]5COC[C@H]5N(C)C)nc4c2F)N2C[C@H]4CC[C@H](N4)[C@H]2CCO3)c1C(F)(F)F` [Example 39, (3R,4R)-4-(((6aR,7S,10R)-2-(5-amino-3-methyl-2-(trifluoromethyl)phenyl)-1-fluoro-5,6,6a,7,8,9,10,11-octahydro-4-oxa-3,11a,12,14,15-pentaaza-7,10-methanocyclohepta[4,5]cycloocta [1,2,3-de]naphthalen-13-yl)oxy)-N,N-dimethyltetrahydrofuran-3-amine], 3 to 1000 nM; as for `COC1CN(C)CC(C)(COc2nc3c4c(nc(-c5cc(N)cc(C)c5C(F)(F)F)c(F)c4n2)OCC[C@@H]2[C@@H]4CC[C@H](CN32)N4)C1` (stereo partly drawn) [Example 129, 3-((6aR,7S,10R)-1-fluoro-13-((5-methoxy-1,3-dimethylpiperidin-3-yl)methoxy)-5,6,6a,7,8,9,10,11-octahydro-4-oxa-3,11a,12,14,15-pentaaza-7,10-methanocyclohepta[4,5]cycloocta[1,2,3-de]naphthalen-2-yl)-5-methyl-4-(trifluoromethyl)aniline], 3 to 1000 nM.
`CCN1CC(F)CC(C)(COc2nc3c4c(nc(-c5cc(N)cc(C)c5C(F)(F)F)c(F)c4n2)OCC[C@@H]2[C@@H]4CC[C@H](CN32)N4)C1` (stereo partly drawn) [Example 203, 3-((6aR,7S,10R)-13-((1-ethyl-5-fluoro-3-methylpiperidin-3-yl)methoxy)-1-fluoro-5,6,6a,7,8,9,10,11-octahydro-4-oxa-3,11a,12,14,15-pentaaza-7,10-methanocyclohepta[4,5]cycloocta[1,2,3-de]naphthalen-2-yl)-5-methyl-4-(trifluoromethyl)aniline]: the IC50 was in the range of 0.3 to 3 nM.
Same read-out and setting: the figure for `Cc1cc(N)cc(-c2nc3c4c(nc(OCC5(CN6CCn7ncnc7C6)CC5)nc4c2F)N2C[C@H]4CC[C@H](N4)[C@H]2CCO3)c1C(F)(F)F` [Example 109, 3-((6aR,7S,10R)-13-((1-((5,6-dihydro-[1,2,4]triazolo[1,5-a]pyrazin-7(8H)-yl)methyl)cyclopropyl)methoxy)-1-fluoro-5,6,6a,7,8,9,10,11-octahydro-4-oxa-3,11a, 12,14,15-pentaaza-7,10-methanocyclohepta [4,5]cycloocta [1,2,3-de]naphthalen-2-yl)-5-methyl-4-(trifluoromethyl)aniline] is 3 to 1000 nM; for `Cc1cc(N)cc(-c2nc3c4c(nc(OCC5(C)COCC5N(C)C)nc4c2F)N2C[C@H]4CC[C@H](N4)[C@H]2CCO3)c1C(F)(F)F` (mixture of isomers) [Example 15, 4-((((6aR,7S,10R)-2-(5-amino-3-methyl-2-(trifluoromethyl)phenyl)-1-fluoro-5,6,6a,7,8,9,10,11-octahydro-4-oxa-3,11a,12,14,15-pentaaza-7,10-methanocyclohepta[4,5]cycloocta [1,2,3-de]naphthalen-13-yl)oxy)methyl)-N,N,4-trimethyltetrahydrofuran-3-amine] it is 0.3 to 3 nM.
On the same count and under the same terms, as for `Cc1cc(N)cc(-c2nc3c4c(nc(OCC5(CN6CCCC6CO)CC5)nc4c2F)N2C[C@H]4CC[C@H](N4)[C@H]2CCO3)c1C(F)(F)F` (single isomer, unassigned) [Example 125], the figure is less than 0.3 nM; as for `CO[C@H]1CCN(C)[C@@H]1C(C)Oc1nc2c3c(nc(-c4cc(N)cc(C)c4C(F)(F)F)c(F)c3n1)OCC[C@@H]1[C@@H]3CC[C@H](CN21)N3` (single isomer, unassigned) [Example 76], 0.3 to 3 nM.
On the same count and under the same terms, the figure for `COC1CN(C)CC(C)(COc2nc3c4c(nc(-c5cc(N)cc(C)c5C(F)(F)F)c(F)c4n2)OCC[C@@H]2[C@@H]4CC[C@H](CN32)N4)C1` (stereo partly drawn) [Example 127, 3-((6aR,7S,10R)-1-fluoro-13-((5-methoxy-1,3-dimethylpiperidin-3-yl)methoxy)-5,6,6a,7,8,9,10,11-octahydro-4-oxa-3,11a,12,14,15-pentaaza-7,10-methanocyclohepta[4,5]cycloocta[1,2,3-de]naphthalen-2-yl)-5-methyl-4-(trifluoromethyl)aniline] is less than 0.3 nM.
Regarding `CO[C@@H]1C[C@@H](C(C)Oc2nc3c4c(nc(-c5cc(N)cc(C)c5C(F)(F)F)c(F)c4n2)OCC[C@@H]2[C@@H]4CC[C@H](CN32)N4)N(C)C1` (single isomer, unassigned) [Example 145], the IC50 lay in the range of 0.3 to 3 nM.
For the compound `Cc1cc(N)cc(-c2nc3c4c(nc(OC[C@H]5COC[C@@H]5N(C)C)nc4c2F)N2C[C@H]4CC[C@H](N4)[C@H]2CCO3)c1C(F)(F)F` [Example 14, (3R,4R)-4-((((6aR,7S,10R)-2-(5-amino-3-methyl-2-(trifluoromethyl)phenyl)-1-fluoro-5,6,6a,7,8,9,10,11-octahydro-4-oxa-3,11a,12,14,15-pentaaza-7,10-methanocyclohepta[4,5]cycloocta [1,2,3-de]naphthalen-13-yl)oxy)methyl)-N,N-dimethyltetrahydrofuran-3-amine], the IC50 fell in the range of 3 to 1000 nM.
The same measure, in the same setting: the figure for `Cc1cc(N)cc(-c2nc3c4c(nc(O[C@H]5COC[C@@H]5N(C)C)nc4c2F)N2C[C@H]4CC[C@H](N4)[C@H]2CCO3)c1C(F)(F)F` [Example 40, (3S,4R)-4-(((6aR,7S,10R)-2-(5-amino-3-methyl-2-(trifluoromethyl)phenyl)-1-fluoro-5,6,6a,7,8,9,10,11-octahydro-4-oxa-3,11a,12,14,15-pentaaza-7,10-methanocyclohepta[4,5]cycloocta [1,2,3-de]naphthalen-13-yl)oxy)-N,N-dimethyltetrahydrofuran-3-amine] is 3 to 1000 nM; for `Cc1cc(N)cc(-c2nc3c4c(nc(O[C@@H]5CCOC[C@H]5N(C)C)nc4c2F)N2C[C@H]4CC[C@H](N4)[C@H]2CCO3)c1C(F)(F)F` [Example 7] it is 3 to 1000 nM.
Consider `Cc1cc(N)cc(-c2nc3c4c(nc(O[C@@H]5COCC[C@H]5N(C)C)nc4c2F)N2C[C@H]4CC[C@H](N4)[C@H]2CCO3)c1C(F)(F)F` [Example 10, (3S,4R)-3-(((6aR,7S,10R)-2-(5-amino-3-methyl-2-(trifluoromethyl)phenyl)-1-fluoro-5,6,6a,7,8,9,10,11-octahydro-4-oxa-3,11a,12,14,15-pentaaza-7,10-methanocyclohepta[4,5]cycloocta [1,2,3-de]naphthalen-13-yl)oxy)-N,N-dimethyltetrahydro-2H-pyran-4-amine], for which the IC50 lay in the range of 3 to 1000 nM.
The same measure, in the same setting: as for `Cc1cc(N)cc(-c2nc3c4c(nc(O[C@H]5CCOC[C@H]5N(C)C)nc4c2F)N2C[C@H]4CC[C@H](N4)[C@H]2CCO3)c1C(F)(F)F` [Example 11, (3R,4S)-4-(((6aR,7S,10R)-2-(5-amino-3-methyl-2-(trifluoromethyl)phenyl)-1-fluoro-5,6,6a,7,8,9,10,11-octahydro-4-oxa-3,11a,12,14,15-pentaaza-7,10-methanocyclohepta[4,5]cycloocta [1,2,3-de]naphthalen-13-yl)oxy)-N,N-dimethyltetrahydro-2H-pyran-3-amine], the figure is 3 to 1000 nM.

The assay is the same for the next values; noted with them: KRAS^G12D Probe Displacement Assay IC50, KRAS G12D.
Regarding `COC1CN(CC2(COc3nc4c5c(nc(-c6cc(N)cc(C)c6C(F)(F)F)c(F)c5n3)OCC[C@@H]3[C@@H]5CC[C@H](CN43)N5)CC2(F)F)C1` (single isomer, unassigned) [Example 21], the IC50 is 0.3 to 3 nM.
